In brackets after ≈: the same amount, converted by molar mass.
Columns and labels:
[1] = tested on: Staphylococcus aureus; test: Antibacterial activity against Staphylococcus aureus ATCC 29213 by NCCLS two-fold dilution method; format: functional
[2] = tested on: Staphylococcus aureus; test: Antibacterial activity against Staphylococcus aureus ATCC 25923 after 24 hrs by spectrophotometric analysis; format: functional, organism-based
[3] = tested on: Staphylococcus aureus; test: Antibacterial activity against Staphylococcus aureus ATCC 29213 after 24 hrs by spectrophotometric analysis; format: functional, organism-based
[4] = tested on: Staphylococcus aureus; test: Antibacterial activity against gentamicin-resistant Staphylococcus aureus ATCC 33592 by NCCLS two-fold dilution method; format: functional
[5] = tested on: Staphylococcus aureus; test: Antibacterial activity against methicillin-resistant Staphylococcus aureus ATCC 700699 after 24 hrs by spectrophotometric analysis; format: functional, organism-based
[6] = tested on: Staphylococcus aureus; test: Antibacterial activity against methicillin-resistant Staphylococcus aureus ATCC 700699 by NCCLS two-fold dilution method; format: functional
[7] = tested on: Staphylococcus aureus; test: Antibacterial activity against gentamicin-resistant Staphylococcus aureus ATCC 33592 after 24 hrs by spectrophotometric analysis; format: functional, organism-based
[8] = tested on: Staphylococcus aureus; test: Antibacterial activity against Staphylococcus aureus ATCC 25923 by NCCLS two-fold dilution method; format: functional; conditions: for MIC: Staphylococcus aureus, ATCC 25923
[9] = tested on: Escherichia coli; test: Antibacterial activity against Escherichia coli after 24 hrs by spectrophotometric analysis; format: functional, organism-based
[10] = tested on: Klebsiella pneumoniae; test: Antibacterial activity against Klebsiella pneumoniae after 24 hrs by spectrophotometric analysis; format: functional, organism-based
[11] = Staphylococcus aureus, ATCC 25923, 24 h
[12] = Staphylococcus aureus, ATCC 25923, 24 h, read-out: IC50
[13] = Staphylococcus aureus, ATCC 29213, 24 h
[14] = Staphylococcus aureus, ATCC 29213, 24 h, read-out: IC50
[15] = Staphylococcus aureus, ATCC 700699, 24 h
[16] = Staphylococcus aureus, ATCC 700699, 24 h, read-out: IC50
[17] = Staphylococcus aureus, ATCC 33592, 24 h
[18] = Staphylococcus aureus, ATCC 33592, 24 h, read-out: IC50

## CC(C)(C)n1nnnc1C(c1ccco1)N1CCN(c2cc3c(cc2F)c(=O)c(C(=O)O)cn3Cc2ccc(C(F)(F)F)cc2)CC1 (stereo not given)
[1]
  MIC: 25 µg/mL (≈ 38.2 µM)
[2]; [11]
  MIC: 50 µg/mL (≈ 76.5 µM)
[2]; [12]
  IC50: 50 µg/mL (≈ 76.5 µM)
[3]; [13]
  MIC: 50 µg/mL (≈ 76.5 µM)
[3]; [14]
  IC50: 50 µg/mL (≈ 76.5 µM)
[4]
  MIC: 12.5 µg/mL (≈ 19.1 µM)
[5]; [15]
  MIC: 50 µg/mL (≈ 76.5 µM)
[5]; [16]
  IC50: 50 µg/mL (≈ 76.5 µM)
[6]
  MIC: 50 µg/mL (≈ 76.5 µM)
[7]; [17]
  MIC: 50 µg/mL (≈ 76.5 µM)
[7]; [18]
  IC50: 50 µg/mL (≈ 76.5 µM)
[8]
  MIC: 50 µg/mL (≈ 76.5 µM)

## CC(C)(C)n1nnnc1C(c1cccc2ccccc12)N1CCN(c2cc3c(cc2F)c(=O)c(C(=O)O)cn3Cc2ccc(C(F)(F)F)cc2)CC1 (stereo not given)
[1]
  MIC: 50 µg/mL (≈ 70.1 µM)
[2]; [11]
  MIC: 50 µg/mL (≈ 70.1 µM)
[2]; [12]
  IC50: 50 µg/mL (≈ 70.1 µM)
[3]; [13]
  MIC: 50 µg/mL (≈ 70.1 µM)
[3]; [14]
  IC50: > 50 µg/mL
[4]
  MIC: 50 µg/mL (≈ 70.1 µM)
[5]; [15]
  MIC: 50 µg/mL (≈ 70.1 µM)
[5]; [16]
  IC50: 50 µg/mL (≈ 70.1 µM)
[6]
  MIC: 50 µg/mL (≈ 70.1 µM)
[7]; [17]
  MIC: > 50 µg/mL
[7]; [18]
  IC50: > 50 µg/mL
[8]
  -logMIC: 4.455
  MIC: 50 µg/mL (≈ 70.1 µM)

## O=C(O)c1cn(Cc2ccc(C(F)(F)F)cc2)c2cc(N3CCN(C(c4ccc(F)cc4)c4nnnn4C4CCCCC4)CC3)c(F)cc2c1=O (stereo not given)
[1]
  MIC: > 50 µg/mL
[2]; [11]
  MIC: 12.5 µg/mL (≈ 17.7 µM)
[2]; [12]
  IC50: 5.2 µg/mL (≈ 7.35 µM)
[3]; [13]
  MIC: > 50 µg/mL
[3]; [14]
  IC50: > 50 µg/mL
[4]
  MIC: > 50 µg/mL
[5]; [15]
  MIC: > 50 µg/mL
[5]; [16]
  IC50: > 50 µg/mL
[6]
  MIC: > 50 µg/mL
[7]; [17]
  MIC: > 50 µg/mL
[7]; [18]
  IC50: > 50 µg/mL
[8]
  -logMIC: 4.752
  MIC: 12.5 µg/mL (≈ 17.7 µM)

## CCn1cc(C(=O)O)c(=O)c2cc(F)c(N3CCN(C(c4ccc(C(C)C)cc4)c4nnnn4C(C)(C)C)CC3)cc21 (stereo not given)
[1]
  MIC: 50 µg/mL (≈ 86.9 µM)
[2]; [11]
  MIC: 50 µg/mL (≈ 86.9 µM)
[2]; [12]
  IC50: 50 µg/mL (≈ 86.9 µM)
[3]; [13]
  MIC: > 50 µg/mL
[3]; [14]
  IC50: 50 µg/mL (≈ 86.9 µM)
[4]
  MIC: > 50 µg/mL
[5]; [15]
  MIC: 50 µg/mL (≈ 86.9 µM)
[5]; [16]
  IC50: 50 µg/mL (≈ 86.9 µM)
[6]
  MIC: 50 µg/mL (≈ 86.9 µM)
[7]; [17]
  MIC: 50 µg/mL (≈ 86.9 µM)
[7]; [18]
  IC50: > 50 µg/mL
[8]
  -logMIC: 4.06
  MIC: 50 µg/mL (≈ 86.9 µM)

## COc1ccc(C(c2nnnn2C2CCCCC2)N2CCN(c3cc4c(cc3F)c(=O)c(C(=O)O)cn4Cc3ccc(C(F)(F)F)cc3)CC2)c2ccccc12 (stereo not given)
[1]
  MIC: > 50 µg/mL
[2]; [11]
  MIC: > 50 µg/mL
[2]; [12]
  IC50: 50 µg/mL (≈ 65 µM)
[3]; [13]
  MIC: > 50 µg/mL
[3]; [14]
  IC50: > 50 µg/mL
[4]
  MIC: > 50 µg/mL
[5]; [15]
  MIC: > 50 µg/mL
[5]; [16]
  IC50: > 50 µg/mL
[6]
  MIC: > 50 µg/mL
[7]; [17]
  MIC: > 50 µg/mL
[7]; [18]
  IC50: > 50 µg/mL
[8]
  -logMIC: 4.187
  MIC: 50 µg/mL (≈ 65 µM)

## CC(C)c1ccc(C(c2nnnn2C(C)(C)C)N2CCN(c3cc4c(cc3F)c(=O)c(C(=O)O)cn4Cc3ccc(C(F)(F)F)cc3)CC2)cc1 (stereo not given)
[1]
  MIC: 6.25 µg/mL (≈ 8.86 µM)
[2]; [11]
  MIC: 3.12 µg/mL (≈ 4.42 µM)
[2]; [12]
  IC50: 1.8 µg/mL (≈ 2.55 µM)
[3]; [13]
  MIC: 3.1 µg/mL (≈ 4.39 µM)
[3]; [14]
  IC50: 1.5 µg/mL (≈ 2.13 µM)
[4]
  MIC: 3.12 µg/mL (≈ 4.42 µM)
[5]; [15]
  MIC: 1.6 µg/mL (≈ 2.27 µM)
[5]; [16]
  IC50: 1.4 µg/mL (≈ 1.98 µM)
[6]
  MIC: 3.12 µg/mL (≈ 4.42 µM)
[7]; [17]
  MIC: 0.87 µg/mL (≈ 1.23 µM)
[7]; [18]
  IC50: 0.8 µg/mL (≈ 1.13 µM)
[8]
  -logMIC: 4.149
  MIC: 3.12 µg/mL (≈ 4.42 µM)

## GENTAMICIN
[9]
  IC50: 1.7 µg/mL
[2]
  IC50: 1.7 µg/mL
[3]
  IC50: > 50 µg/mL
[5]
  IC50: > 50 µg/mL
[10]
  IC50: 1.7 µg/mL
[7]
  IC50: > 50 µg/mL

## COc1ccc(C(c2nnnn2C2CCCCC2)N2CCN(c3cc4c(cc3F)c(=O)c(C(=O)O)cn4Cc3ccc(C(F)(F)F)cc3)CC2)c(OC)c1OC (stereo not given)
[1]
  MIC: > 50 µg/mL
[2]; [11]
  MIC: 50 µg/mL (≈ 64.1 µM)
[2]; [12]
  IC50: > 50 µg/mL
[3]; [13]
  MIC: > 50 µg/mL
[3]; [14]
  IC50: > 50 µg/mL
[4]
  MIC: > 50 µg/mL
[5]; [15]
  MIC: > 50 µg/mL
[5]; [16]
  IC50: > 50 µg/mL
[6]
  MIC: > 50 µg/mL
[7]; [17]
  MIC: > 50 µg/mL
[7]; [18]
  IC50: 50 µg/mL (≈ 64.1 µM)
[8]
  -logMIC: 4.193
  MIC: 50 µg/mL (≈ 64.1 µM)

## CCn1cc(C(=O)O)c(=O)c2cc(F)c(N3CCN(C(c4ccc(C(C)C)cc4)c4nnnn4C4CCCCC4)CC3)cc21 (stereo not given)
[1]
  MIC: 12.5 µg/mL (≈ 20.8 µM)
[2]; [11]
  MIC: 19 µg/mL (≈ 31.6 µM)
[2]; [12]
  IC50: 8 µg/mL (≈ 13.3 µM)
[3]; [13]
  MIC: 3.3 µg/mL (≈ 5.48 µM)
[3]; [14]
  IC50: 3.1 µg/mL (≈ 5.15 µM)
[4]
  MIC: 3.12 µg/mL (≈ 5.19 µM)
[5]; [15]
  MIC: 50 µg/mL (≈ 83.1 µM)
[5]; [16]
  IC50: 50 µg/mL (≈ 83.1 µM)
[6]
  MIC: 50 µg/mL (≈ 83.1 µM)
[7]; [17]
  MIC: 1.6 µg/mL (≈ 2.66 µM)
[7]; [18]
  IC50: 1.5 µg/mL (≈ 2.49 µM)
[8]
  -logMIC: 4.682
  MIC: 12.5 µg/mL (≈ 20.8 µM)

## CC(C)c1ccc(C(c2nnnn2C2CCCCC2)N2CCN(c3cc4c(cc3F)c(=O)c(C(=O)O)cn4Cc3ccc(C(F)(F)F)cc3)CC2)cc1 (stereo not given)
[1]
  MIC: > 50 µg/mL
[2]; [11]
  MIC: 50 µg/mL (≈ 68.3 µM)
[2]; [12]
  IC50: > 50 µg/mL
[3]; [13]
  MIC: > 50 µg/mL
[3]; [14]
  IC50: 50 µg/mL (≈ 68.3 µM)
[4]
  MIC: > 50 µg/mL
[5]; [15]
  MIC: 50 µg/mL (≈ 68.3 µM)
[5]; [16]
  IC50: > 50 µg/mL
[6]
  MIC: > 50 µg/mL
[7]; [17]
  MIC: > 50 µg/mL
[7]; [18]
  IC50: 50 µg/mL (≈ 68.3 µM)
[8]
  -logMIC: 4.165
  MIC: 50 µg/mL (≈ 68.3 µM)

## O=C(O)c1cn(Cc2ccc(C(F)(F)F)cc2)c2cc(N3CCN(C(c4cccc5ccccc45)c4nnnn4C4CCCCC4)CC3)c(F)cc2c1=O (stereo not given)
[1]
  MIC: > 50 µg/mL
[2]; [11]
  MIC: > 50 µg/mL
[2]; [12]
  IC50: 50 µg/mL (≈ 67.6 µM)
[3]; [13]
  MIC: > 50 µg/mL
[3]; [14]
  IC50: > 50 µg/mL
[4]
  MIC: > 50 µg/mL
[5]; [15]
  MIC: > 50 µg/mL
[5]; [16]
  IC50: > 50 µg/mL
[6]
  MIC: > 50 µg/mL
[7]; [17]
  MIC: > 50 µg/mL
[7]; [18]
  IC50: > 50 µg/mL
[8]
  -logMIC: 4.169
  MIC: 50 µg/mL (≈ 67.6 µM)

Source: ChEMBL document CHEMBL3232987, “Investigation of Ugi-4CC derived 1H-tetrazol-5-yl-(aryl) methyl piperazinyl-6-fluoro-4-oxo-1,4-dihydroquinoline-3-carboxylic acid: synthesis, biology and 3D-QSAR analysis” (Eur J Med Chem, 2014)
